According to paper PMC6790288 (The journal of pain : official journal of the American Pain …, 2019):

Tests used:
[1] = cited from earlier work
[2] = tramadol and its metabolites; cited from earlier work
cold-induced pain [3] = assay: Cold pressor test; type: in vivo, human; settings: trial A
pupil diameter = assay: Pupillometry; type: in vivo, human; settings: trial A; for Pupil diameter, predose: before first dose of segment
healthy participants [4] = assay: Drug-related adverse events
healthy participants [5] = assay: Abuse liability visual analog scales; type: in vivo, human; settings: trial A, n = 43, 0–100 mm VAS after seventh dose, M (SD)
healthy participants [6] = assay: Respiratory rate; settings: trial B (with paroxetine), n = 60; MPD (SD)
cold-induced pain [7] = settings: VAS, mean [SD], cited from earlier work
[8] = 12 participants, 5 days rifampicin, 100 mg oral tramadol; cited from earlier work
[9] = achiral analyses of blood; intoxication with the labelled substance; cited from earlier work

Question: For `COc1cccc(C2(O)CCCCC2CN(C)C)c1` (centres unmarked) [Tramadol, tramadol], which lethal dose [1] is on record?
Answer: > 5 g

Question: What about the “median ingested dose in overdose with respiratory depression” value ([1]; in vivo) of the same compound?
Answer: 2,500 mg

Question: What about the “median ingested dose in overdose with no respiratory depression” value ([1]; range = 450−6,000 mg) of the same compound?
Answer: 1,000 mg

Question: What about the “tramadol dose appearing in the urine” value [2] of the same compound?
Answer: > 90%

Question: What about the “average duration of tolerance to pain” value (cold-induced pain [3]) of the same compound?
Answer: 62 s

Question: And the “pupil diameter, mean paired reduction compared with placebo” value (pupil diameter; after dosing, mean (SD))?
Answer: −.7 (.6) mm

Question: And the “Pupil diameter, after seventh dose” value (pupil diameter; n = 43, M (SD))?
Answer: 5.5 (1.1) mm

Question: What about the “Pupil diameter, predose” value (pupil diameter; n = 43, M (SD)) of the same compound?
Answer: 6.1 (.9) mm

Question: What about the “Pupil diameter, predose” value (pupil diameter; n = 43, M (SD), listed as tramadol) of the same compound?
Answer: 6.1 [.9] mm

Question: What about the Deaths (healthy participants [4]; trial A) of the same compound?
Answer: 0 (0) n (%)

Question: And the “Severe AEs” value (healthy participants [4]; trial A)?
Answer: 0 (0) n (%)

Question: And the “participants reporting drug-related AEs” value (healthy participants [4]; trial A)?
Answer: 49%

Question: And the Dizziness (healthy participants [4]; trial A, all)?
Answer: 5(12) n (%)

Question: And the Euphoria (healthy participants [4]; trial A, all)?
Answer: 0 (0) n (%)

Question: And the Feel abnormal (healthy participants [4]; trial A, all)?
Answer: 1 (2) n (%)

Question: What about the Feel hot (healthy participants [4]; trial A, all) of the same compound?
Answer: 0 (0) n (%)

Question: What about the Headache (healthy participants [4]; trial A, all) of the same compound?
Answer: 7(17) n (%)

Question: And the Nausea (healthy participants [4]; trial A, all)?
Answer: 5(12) n (%)

Question: And the Presyncope (healthy participants [4]; trial A, all)?
Answer: 0 (0) n (%)

Question: What about the Pruritus (healthy participants [4]; trial A, all) of the same compound?
Answer: 4(10) n (%)

Question: What about the Somnolence (healthy participants [4]; trial A, all) of the same compound?
Answer: 2 (5) n (%)

Question: And the Spasticity (healthy participants [4]; trial A, all)?
Answer: 1 (2) n (%)

Question: And the Sweating (healthy participants [4]; trial A, all)?
Answer: 0 (0) n (%)

Question: And the Vomiting (healthy participants [4]; trial A, all)?
Answer: 1 (2) n (%)

Question: What about the Dizziness (healthy participants [4]; trial A, male) of the same compound?
Answer: 5(12) n (%)

Question: And the Euphoria (healthy participants [4]; trial A, male)?
Answer: 0 (0) n (%)

Question: What about the Feel abnormal (healthy participants [4]; trial A, male) of the same compound?
Answer: 1 (2) n (%)

Question: And the Feel hot (healthy participants [4]; trial A, male)?
Answer: 0 (0) n (%)

Question: And the Headache (healthy participants [4]; trial A, male)?
Answer: 7(17) n (%)

Question: What about the Nausea (healthy participants [4]; trial A, male) of the same compound?
Answer: 5(12) n (%)

Question: And the Presyncope (healthy participants [4]; trial A, male)?
Answer: 0 (0) n (%)

Question: What about the Pruritus (healthy participants [4]; trial A, male) of the same compound?
Answer: 4(10) n (%)

Question: What about the Somnolence (healthy participants [4]; trial A, male) of the same compound?
Answer: 2 (5) n (%)

Question: What about the Spasticity (healthy participants [4]; trial A, male) of the same compound?
Answer: 1 (2) n (%)

Question: What about the Sweating (healthy participants [4]; trial A, male) of the same compound?
Answer: 0 (0) n (%)

Question: What about the Vomiting (healthy participants [4]; trial A, male) of the same compound?
Answer: 1 (2) n (%)

Question: And the “All drug-related AEs” value (healthy participants [4]; trial A, n = 43 (all male))?
Answer: 20 (49) n (%)

Question: What about the Deaths (healthy participants [4]; trial B) of the same compound?
Answer: 0 (0) n (%)

Question: And the “Severe AEs” value (healthy participants [4]; trial B)?
Answer: 0 (0) n (%)

Question: And the “participants reporting drug-related AEs” value (healthy participants [4]; trial B (with paroxetine))?
Answer: 50%

Question: What about the “All drug-related AEs” value (healthy participants [4]; trial B (with paroxetine), n = 60) of the same compound?
Answer: 30 (50) n (%)

Question: And the Dizziness (healthy participants [4]; trial B, all)?
Answer: 8(13) n (%)

Question: What about the Euphoria (healthy participants [4]; trial B, all) of the same compound?
Answer: 1 (2) n (%)

Question: What about the Feel abnormal (healthy participants [4]; trial B, all) of the same compound?
Answer: 2 (3) n (%)

Question: And the Feel hot (healthy participants [4]; trial B, all)?
Answer: 0 (0) n (%)

Question: And the Headache (healthy participants [4]; trial B, all)?
Answer: 6(10) n (%)

Question: And the Nausea (healthy participants [4]; trial B, all)?
Answer: 8(13) n (%)

Question: And the Presyncope (healthy participants [4]; trial B, all)?
Answer: 1 (2) n (%)

Question: What about the Pruritus (healthy participants [4]; trial B, all) of the same compound?
Answer: 1 (2) n (%)

Question: What about the Somnolence (healthy participants [4]; trial B, all) of the same compound?
Answer: 4(7) n (%)

Question: And the Spasticity (healthy participants [4]; trial B, all)?
Answer: 3 (5) n (%)

Question: And the Sweating (healthy participants [4]; trial B, all)?
Answer: 1 (2) n (%)

Question: What about the Vomiting (healthy participants [4]; trial B, all) of the same compound?
Answer: 2 (3) n (%)

Question: And the Dizziness (healthy participants [4]; trial B, female)?
Answer: 4(22) n (%)

Question: And the Euphoria (healthy participants [4]; trial B, female)?
Answer: 0 (0) n (%)

Question: What about the Feel abnormal (healthy participants [4]; trial B, female) of the same compound?
Answer: 0 (0) n (%)

Question: What about the Feel hot (healthy participants [4]; trial B, female) of the same compound?
Answer: 0 (0) n (%)

Question: What about the Headache (healthy participants [4]; trial B, female) of the same compound?
Answer: 6 (33) n (%)

Question: What about the Nausea (healthy participants [4]; trial B, female) of the same compound?
Answer: 2(11) n (%)

Question: What about the Presyncope (healthy participants [4]; trial B, female) of the same compound?
Answer: 0 (0) n (%)

Question: What about the Pruritus (healthy participants [4]; trial B, female) of the same compound?
Answer: 1 (6) n (%)

Question: And the Somnolence (healthy participants [4]; trial B, female)?
Answer: 2(11) n (%)

Question: And the Spasticity (healthy participants [4]; trial B, female)?
Answer: 0 (0) n (%)

Question: And the Sweating (healthy participants [4]; trial B, female)?
Answer: 0 (0) n (%)

Question: And the Vomiting (healthy participants [4]; trial B, female)?
Answer: 0 (0) n (%)

Question: What about the Dizziness (healthy participants [4]; trial B, male) of the same compound?
Answer: 4(10) n (%)

Question: And the Euphoria (healthy participants [4]; trial B, male)?
Answer: 1 (2) n (%)

Question: What about the Feel abnormal (healthy participants [4]; trial B, male) of the same compound?
Answer: 2 (5) n (%)

Question: And the Feel hot (healthy participants [4]; trial B, male)?
Answer: 0 (0) n (%)

Question: What about the Headache (healthy participants [4]; trial B, male) of the same compound?
Answer: 0 (0) n (%)

Question: And the Nausea (healthy participants [4]; trial B, male)?
Answer: 6(14) n (%)

Question: What about the Presyncope (healthy participants [4]; trial B, male) of the same compound?
Answer: 1 (2) n (%)

Question: What about the Pruritus (healthy participants [4]; trial B, male) of the same compound?
Answer: 0 (0) n (%)

Question: And the Somnolence (healthy participants [4]; trial B, male)?
Answer: 2 (5) n (%)

Question: What about the Spasticity (healthy participants [4]; trial B, male) of the same compound?
Answer: 3 (7) n (%)

Question: And the Sweating (healthy participants [4]; trial B, male)?
Answer: 1 (2) n (%)

Question: What about the Vomiting (healthy participants [4]; trial B, male) of the same compound?
Answer: 2 (5) n (%)

Question: What about the “headache incidence, tramadol compared with desmetramadol AE profile” value (healthy participants [4]; trial B, same participants) of the same compound?
Answer: −40%

Question: And the “nausea incidence, tramadol compared with desmetramadol AE profile” value (healthy participants [4]; trial B, same participants)?
Answer: −50%

Question: What about the “presyncope incidence, tramadol compared with desmetramadol AE profile” value (healthy participants [4]; trial B, same participants) of the same compound?
Answer: −83%

Question: What about the “pruritus incidence, tramadol compared with desmetramadol AE profile” value (healthy participants [4]; trial B, same participants) of the same compound?
Answer: −75%

Question: What about the “somnolence incidence, tramadol compared with desmetramadol AE profile” value (healthy participants [4]; trial B, same participants) of the same compound?
Answer: −60%

Question: What about the “vomiting incidence, tramadol compared with desmetramadol AE profile” value (healthy participants [4]; trial B, same participants) of the same compound?
Answer: −78%

Question: What about the Drug liking-disliking (healthy participants [5]) of the same compound?
Answer: 48(15) mm

Question: And the “Strength of drug effect” value (healthy participants [5])?
Answer: 32 (29) mm

Question: What about the Take drug again (healthy participants [5]) of the same compound?
Answer: 47(18) mm

Question: And the “Strength of drug effect” value (healthy participants [5]; listed as tramadol)?
Answer: 32 [29] mm

Question: What about the “Average postdose respiratory rate, mean paired difference versus placebo” value (healthy participants [6]) of the same compound?
Answer: −.34 [.99] min^−1

Question: And the “peak mean pain perception to cold after tramadol” value (cold-induced pain [7]; after a single 50 mg dose of tramadol)?
Answer: 5.0 [2.3] cm

Question: What about the “peak mean pain perception to cold before tramadol” value (cold-induced pain [7]; before a single 50 mg dose of tramadol) of the same compound?
Answer: 6.3 [2.0] cm

Question: What about the “decrease of AUC by rifampicin induction” value [8] of the same compound?
Answer: 59%

Question: And the “mean blood M1 level in fatal intoxications” value [9]?
Answer: 1,900 ng/mL
